From patent US11214594B2, “Antimicrobial peptide having synergistic antibacterial effect with antibiotics on multidrug resistant bacteria, and use thereof” (priority 2016, dated 2022)
≈ marks a conversion by molar mass, not a printed value. Like-named read-outs stand apart in the source and are kept apart here. Where a SMILES comes first, the peptide text is derived from it.

What was measured:
MDRAB 12035 = experiment: MIC of antimicrobial peptide during combined treatment with antibiotic; format: cell-based, Acinetobacter baumannii
Method in brief: (§1)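 Antibiotic MIC came from antibiotic dilutions added to bacteria (2×10^6 CFU/ml, MH medium) already combined with peptide serially diluted 2:1 from its own MIC. Swapping the roles of the two agents gave the peptide MIC.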

A. baumannii = experiment: as above; format: cell-based, Acinetobacter baumannii
Method in brief: as §1

MDREC 1229 [1] = experiment: microbe, parasite or virus in culture; format: cell-based, Escherichia coli
Method in brief: (§2)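 Each strain is brought to 2×10^6 CFU in nutrient-sufficient Mueller-Hinton medium and dispensed into wells. Peptide solutions, stepwise diluted 2:1 in the same medium, are then added. The minimal concentration preventing growth gives the MIC.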

E. coli = experiment: microbe, parasite or virus in culture; format: cell-based, Escherichia coli; details: 16 h
Method in brief: as §2

MDREC 1229 [2] = experiment: MIC of antibiotic during combined treatment with antimicrobial peptide; format: cell-based, Escherichia coli
Method in brief: as §1

B. subtilis = experiment: microbe, parasite or virus in culture; format: cell-based, Bacillus subtilis
Method in brief: as §2

MDREC 1229 [3] = format: cell-based, Escherichia coli
Method in brief: as §1

[4] = erythromycin 4 μg/ml (Conc./MIC 1/8)
[5] = erythromycin 8 μg/ml (Conc./MIC 1/4)
[6] = erythromycin 16 μg/ml (Conc./MIC 1/2)
[7] = erythromycin 32 μg/ml (Conc./MIC 1)
[8] = linezolid 64 μg/ml (Conc./MIC 1/8)
[9] = linezolid 512 μg/ml (Conc./MIC 1)
[10] = vancomycin 512 μg/ml (Conc./MIC 1/2)
[11] = vancomycin 1024 μg/ml (Conc./MIC 1)
[12] = peptide treatment concentration 1 μg/ml
[13] = peptide treatment concentration 2 μg/ml
[14] = peptide treatment concentration 4 μg/ml
[15] = peptide treatment concentration 6 μg/ml
[16] = peptide treatment concentration 8 μg/ml
[17] = peptide treatment concentration 16 μg/ml
[18] = peptide treatment concentration 32 μg/ml
[19] = peptide treatment concentration 64 μg/ml

Compound: CC[C@H](C)[C@H](NC(=O)[C@H](CCCCN)NC(=O)[C@H](Cc1c[nH]c2ccccc12)NC(=O)[C@@H](N)CCCNC(=N)N)C(=O)N[C@@H](Cc1ccccc1)C(=O)N[C@@H](CCCCN)C(=O)N[C@@H](CCCCN)C(=O)N[C@H](C(=O)N1CCC[C@H]1C(=O)N[C@@H](CCCCN)C(=O)N[C@@H](Cc1ccccc1)C(=O)N[C@@H](CC(C)C)C(=O)N[C@@H](Cc1c[nH]cn1)C(=O)N[C@@H](CCC(=O)O)C(=O)N[C@@H](C)C(=O)N[C@@H](CCCCN)C(=O)N[C@@H](CCCCN)C(=O)N[C@@H](Cc1ccccc1)C(N)=O)[C@@H](C)CC [PapMA-11, RWK IFK KIP KFL HEA KKF-NH2] (H-RWKIFKKIPKFLHEAKKF-NH2; N-terminus assumed)
- Peptide MIC during treatment with erythromycin (MDRAB 12035; [4]): 4 µg/mL
- Peptide MIC during treatment with erythromycin (MDRAB 12035; [5]): 4 µg/mL
- Peptide MIC during treatment with erythromycin (MDRAB 12035; [6]): 2 µg/mL
- Peptide MIC during treatment with erythromycin (MDRAB 12035; [7]): 0 µg/mL
- Peptide MIC during treatment with linezolid (MDRAB 12035; [8]): 4 µg/mL
- Peptide MIC during treatment with linezolid (MDRAB 12035; [9]): 0 µg/mL
- Peptide MIC during treatment with linezolid (MDRAB 12035; linezolid […] (Conc./MIC 1/2)): 2 µg/mL
- Peptide MIC during treatment with linezolid (MDRAB 12035; linezolid […] (Conc./MIC 1/4)): 2 µg/mL
- Peptide MIC during treatment with vancomycin (MDRAB 12035; [10]): 1 µg/mL
- Peptide MIC during treatment with vancomycin (MDRAB 12035; [11]): 1 µg/mL
- Peptide MIC during treatment with vancomycin (MDRAB 12035; vancomycin […] (Conc./MIC 1/4)): 2 µg/mL
- Peptide MIC during treatment with vancomycin (MDRAB 12035; vancomycin […] (Conc./MIC 1/8)): 2 µg/mL
- Peptide MIC during treatment with antibiotic (A. baumannii; [4]): 4 µg/mL
- Peptide MIC during treatment with antibiotic (A. baumannii; [5]): 4 µg/mL
- Peptide MIC during treatment with antibiotic (A. baumannii; [6]): 2 µg/mL
- Peptide MIC during treatment with antibiotic (A. baumannii; [7]): 0 µg/mL
- Peptide MIC during treatment with antibiotic (A. baumannii; linezolid 32 μg/ml (Conc./MIC 1/8)): 8 µg/mL
- Peptide MIC during treatment with antibiotic (A. baumannii; linezolid 64 μg/ml (Conc./MIC 1/4)): 4 µg/mL
- Peptide MIC during treatment with antibiotic (A. baumannii; linezolid […] (Conc./MIC 1)): 0 µg/mL
- Peptide MIC during treatment with antibiotic (A. baumannii; linezolid […] (Conc./MIC 1/2)): 2 µg/mL
- Peptide MIC during treatment with antibiotic (A. baumannii; [10]): 0.25 µg/mL
- Peptide MIC during treatment with antibiotic (A. baumannii; [11]): 0 µg/mL
- Peptide MIC during treatment with antibiotic (A. baumannii; vancomycin […] (Conc./MIC 1/4)): 0.5 µg/mL
- Peptide MIC during treatment with antibiotic (A. baumannii; vancomycin […] (Conc./MIC 1/8)): 2 µg/mL
- Minimal inhibitory concentration MIC (MDREC 1229 [1]): 64 µg/mL (≈ 27.3 µM)
- Peptide MIC, peptide alone (MDREC 1229 [1]): 64 µg/mL
- Minimal inhibitory concentration MIC (E. coli): 64 µg/mL (≈ 27.3 µM)
- Antibiotic MIC, Erythromycin (MDREC 1229 [2]; [12]): 128 µg/mL
- Antibiotic MIC, Linezolid (MDREC 1229 [2]; [12]): >128 µg/mL
- Antibiotic MIC, Vancomycin (MDREC 1229 [2]; [12]): >128 µg/mL
- Antibiotic MIC, Erythromycin (MDREC 1229 [2]; [13]): 64 µg/mL
- Antibiotic MIC, Linezolid (MDREC 1229 [2]; [13]): >128 µg/mL
- Antibiotic MIC, Vancomycin (MDREC 1229 [2]; [13]): >128 µg/mL
- Antibiotic MIC, Erythromycin (MDREC 1229 [2]; [14]): 16 µg/mL
- Antibiotic MIC, Linezolid (MDREC 1229 [2]; [14]): 128 µg/mL
- Antibiotic MIC, Vancomycin (MDREC 1229 [2]; [14]): >128 µg/mL
- Antibiotic MIC, Erythromycin (MDREC 1229 [2]; [15]): 8 µg/mL
- Antibiotic MIC, Linezolid (MDREC 1229 [2]; [15]): 128 µg/mL
- Antibiotic MIC, Vancomycin (MDREC 1229 [2]; [15]): >128 µg/mL
- Antibiotic MIC, Erythromycin (MDREC 1229 [2]; [16]): 4 µg/mL
- Antibiotic MIC, Linezolid (MDREC 1229 [2]; [16]): 32 µg/mL
- Antibiotic MIC, Vancomycin (MDREC 1229 [2]; [16]): 128 µg/mL
- Antibiotic MIC, Erythromycin (MDREC 1229 [2]; [17]): 1 µg/mL
- Antibiotic MIC, Linezolid (MDREC 1229 [2]; [17]): 16 µg/mL
- Antibiotic MIC, Vancomycin (MDREC 1229 [2]; [17]): 16 µg/mL
- Antibiotic MIC, Erythromycin (MDREC 1229 [2]; [18]): 0.5 µg/mL
- Antibiotic MIC, Linezolid (MDREC 1229 [2]; [18]): 8 µg/mL
- Antibiotic MIC, Vancomycin (MDREC 1229 [2]; [18]): 8 µg/mL
- Antibiotic MIC, Erythromycin (MDREC 1229 [2]; [19]): 0 µg/mL
- Antibiotic MIC, Linezolid (MDREC 1229 [2]; [19]): 0 µg/mL
- Antibiotic MIC, Vancomycin (MDREC 1229 [2]; [19]): 0 µg/mL
- Minimal inhibitory concentration MIC (B. subtilis): >128 µg/mL
- Peptide MIC during treatment with antibiotic (MDREC 1229 [3]; erythromycin 32 μg/ml (Conc./MIC 1/8)): 4 µg/mL
- Peptide MIC during treatment with antibiotic (MDREC 1229 [3]; erythromycin 64 μg/ml (Conc./MIC 1/4)): 2 µg/mL
- Peptide MIC during treatment with antibiotic (MDREC 1229 [3]; erythromycin […] (Conc./MIC 1)): 0 µg/mL
- Peptide MIC during treatment with antibiotic (MDREC 1229 [3]; erythromycin […] (Conc./MIC 1/2)): 1 µg/mL
- Peptide MIC during treatment with antibiotic (MDREC 1229 [3]; [8]): 8 µg/mL
- Peptide MIC during treatment with antibiotic (MDREC 1229 [3]; [9]): 0 µg/mL
- Peptide MIC during treatment with antibiotic (MDREC 1229 [3]; linezolid […] (Conc./MIC 1/2)): 2 µg/mL
- Peptide MIC during treatment with antibiotic (MDREC 1229 [3]; linezolid […] (Conc./MIC 1/4)): 4 µg/mL
